We go through 11 compounds from patent US6350747B1, “3-(anilinomethylene) oxindoles” (Glaxo Wellcome Inc., priority 1999, dated 2002).

Experiment [1] has as its system HUVEC cells. Description: HUVEC BrdU incorporation, bFGF stimulation. It is filed as cell-based. Particulars: Homo sapiens, 0.3 ng/ml bFGF, 72 hrs, read-out: Inhibition of BrdU incorporation in HUVEC cells, BFGF Stimulation, IC50.
Description: (§1) An assay to measure this effect involves measurement of the inhibition of bromo-deoxy uridine (BrdU) incorporation (evidence of DNA synthesis) in human umbilical vein endothelial cells (HUVECs).
(§2) HUVEC cells and EGM (Endothelial cell growth medium) were purchased from Clonetics (San Diego, CA). VEGF and bFGF were purchased from Genzyme. M199 medium (Gibco BRL) with BSA (Sigma) was used for cell culture in Type I collagen coated plates (Becton Dickinson). The degree of BrdU incorporation was measured using a commercial colorimetric ELISA assay from Boehringer Mannheim.
(§3) HUVECs were plated at a density of 2500 cells per well in M199 medium containing 5% FBS (Hyclone) in a Type-1 Collagen coated plate. The plate was incubated at 37° C. overnight. The medium was removed by aspiration, and test compounds were added to each well in a volume of 0.1 ml per well in serum-free M199 medium. […] The plate was incubated for 30 min at 37° C. Another 0.1 ml of serum-free M199 medium containing BSA and VEGF (or bFGF) was added to give a final concentration of 0.1% BSA and 20 ng/ml VEGF (0.3 ng/ml bFGF). The plate was incubated at 37° C. for 72 hrs. BrdU was added to each well after the first 48 hrs to give a concentration of 10 micomolar. The colorimetric ELISA assay was performed according to manufacturer's instructions, with detection by absorbance reading at 450 nm.
Experiment [2] deals with HUVEC cells. Description: HUVEC BrdU incorporation, VEGF stimulation. It is filed as cell-based. Particulars: Homo sapiens, 20 ng/ml VEGF, 72 hrs, read-out: Inhibition of BrdU incorporation in HUVEC cells, VEGF stimulation, IC50. (Dividing cells build labelled thymidine or BrdU into new DNA.)
Description: as §1, §2, §3
Experiment [3] deals with T1, Tie-2 (Homo sapiens, UniProt Q02763).
T1 construct: The kinase domain of the enzyme was purified to homogeneity from a baculovirus expression system; made in house
T1 sequence (Q02763 824-1096 limits assumed, species assumed): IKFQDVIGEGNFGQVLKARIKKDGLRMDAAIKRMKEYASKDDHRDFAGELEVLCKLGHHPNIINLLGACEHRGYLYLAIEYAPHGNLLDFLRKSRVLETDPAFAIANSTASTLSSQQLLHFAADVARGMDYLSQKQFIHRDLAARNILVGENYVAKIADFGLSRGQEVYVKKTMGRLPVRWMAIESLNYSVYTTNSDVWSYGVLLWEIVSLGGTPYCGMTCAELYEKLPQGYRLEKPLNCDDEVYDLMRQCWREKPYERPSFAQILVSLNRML
Description: Tie-2 substrate phosphorylation assay. The format is biochemical.
Description: The peptide substrate used in the Tie-2 assay was biotin-aminohexyl-[sequence]amide. The kinase domain of the enzyme was purified to homogeneity from a baculovirus expression system. The enzyme was diluted to 10 nM into a 60 μl reaction containing 100 mM HEPES, pH 7.5, 500 μM ATP, 10 mM MgCl2, 2 μM peptide, 1 mM DTT, 0.05 mg/ml BSA, and an inhibitor at varying concentrations. The controls were reactions in the presence (negative controls) or absence (positive controls) of 50 mM EDTA. Reactions were incubated for 30 min at room temperature, and then quenched by stopped by 80 μl, of 0.15 M EDTA. […] The neutravidin plates were then washed with water for 5 times. Europium conjugated anti-phosphotyrosine antibody, (EG & G Wallac, #CR04-100) (1 mg/ml) was diluted 1:10,000 in 1%BSA-0.05% Tween 20-TBS, and 150 μl of the diluted antibody was added to each well of the neutravidin plate, so the phosphorylated peptide was bound with the Europium labelled antibody. After another 30-60 min incubation at room temperature, the plates were washed again with water for 5 times. 150 ul of Enhancemant solution was then added to each well, dissociating Eu^3+ from solid phase bound antibodies to form a homogeneous and highly fluorescent Eu-(2-NTA)3(TOPO)2-3 micellar chelate solution.
The kinase activity of all wells was calculated as %S, the percentage of the fluorescent counts vs. positive controls after substraction of negative controls, as in eq.
Plots of compound concentration versus %S were constructed.
%S=%Smax*(1−(X/(K+X)))+Y2 (2)

Experiment [4] addresses T2, c-fms (Homo sapiens, UniProt P07333).
T2 construct: The c-fms intracellular domain was expressed from a baculovirus expression system, as an amino-terminal GST fusion protein; GST (N); made in house
T2 sequence (P07333 539-972 limits assumed): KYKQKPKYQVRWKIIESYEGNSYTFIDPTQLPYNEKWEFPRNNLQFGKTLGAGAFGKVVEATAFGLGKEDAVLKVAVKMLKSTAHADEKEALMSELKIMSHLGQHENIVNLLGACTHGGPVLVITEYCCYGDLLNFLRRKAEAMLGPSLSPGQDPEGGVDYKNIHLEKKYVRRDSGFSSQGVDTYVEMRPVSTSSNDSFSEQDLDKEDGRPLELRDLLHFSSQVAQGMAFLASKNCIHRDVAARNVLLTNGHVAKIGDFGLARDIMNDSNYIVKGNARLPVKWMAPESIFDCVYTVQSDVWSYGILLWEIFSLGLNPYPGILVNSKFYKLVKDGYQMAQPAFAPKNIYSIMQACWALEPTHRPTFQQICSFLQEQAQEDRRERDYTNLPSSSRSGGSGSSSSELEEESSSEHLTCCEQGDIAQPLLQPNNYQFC
Description: c-fms protein kinase assay. To be noted: read-out: c-fms kinase inhibition IC50. It is filed as biochemical. As to the method: c-fms protein kinase assays utilized the peptide substrate, biotin-EAl[…]-NH2, as the phosphoryl group acceptor. The c-fms intracellular domain was expressed from a baculovirus expression system, as an amino-terminal GST fusion protein, and purified to homogeneity using Glutathione agarose from Sigma Chemical Co. Maximum activation of the enzyme was achieved by preactivation at room temperature for 120 min in the presence of 100 μM ATP and 15 mM MgCl2. This enzyme stock was diluted to 150 nM prior to using in the assay. Typically assays were performed in white, opaque, 96-well plates in a 45 ul assay volume including 15 ul 6% DMSO, with or without compounds, 15 ul of the preactivated, diluted enzyme, and 15 ul of a substrate mixture. Reactions contained 50 mM HEPES, pH 7.5, 1.7 μM ATP, 15 mM MgCl2, […] peptide, 2.5 μM DTT, 50 mM NaCl and 0.15 uCi/assay [^32P]ATP. The controls were reactions in the presence (negative controls) or absence (positive controls) of 50 mM EDTA. Reactions were allowed to proceed for 90 min at room temperature. The reaction products were quantified using Scintillation Proximity technolgy. The reactions were quenched by the addition of 200 ul of a solution containing 0.3 mg streptavidin SPA beads from Amersham, 50 mM EDTA, 0.1% TX-100, 50 uM ATP, in PBS, pH7.2 (phosphate buffered solution). Plates were sealed and counted in a Packard Topcount scintillation counter. IC50 values were obtained by fitting raw data to the equation y=Vmax*(1−(x/(k+x))).

In experiment [5] the target is T3, CDK2 (Homo sapiens, UniProt P24941).
T3 construct: made in house
Description: CDK2 cyclin dependent protein kinase assay. The format is biochemical. To be noted: read-out: CDK2 kinase inhibition IC50. Here is the method:
Cyclin dependent protein kinase assays utilized the peptides Biotin-aminohexyl-[…] and Biotin-aminohexyl-[…]-NH2 as phosphoryl group acceptors. CDK1 and CDK2 were both expressed utilizing a baculovirus expression system and were partially purified to comprise 20-80% of total protein, with no detectable competing reactions present. Typically, assays were performed by incubating either enzyme (0.2-10 nM), with and without inhibitor, one of the two peptide substrates ([…]), [γ-^32P]ATP ([…]), and 10-20 mM Mg^2+ for periods of time generally within the range 10-120 min. Reactions were terminated with 0.2-2 volumes of either 20% acetic acid or 50-100 mM EDTA buffered to pH 7 (substrate consumption<20%). The buffer employed in enzyme assays was either 30 mM HEPES 7.4 containing 0.15 M NaCl and 5% DMSO, the buffer 50 mM MOPS 7.0 containing 0.15 M NaCl and 5% DMSO, or the buffer 100 mM HEPES pH 7.5 containing 0.1 mg/mL BSA and 5% DMSO. Inhibitors were diluted in 100% DMSO prior to addition into the assay. Detection of peptide phosphorylation was accomplished by scintillation counting following either collection of peptide onto phosphocellulose filters (for reactions stopped with acetic acid), collection of peptide in wells of 96 well plates coated with Streptavidin (Pierce) (reactions were stopped with EDTA), or addition of Avidin coated Scintillant impregnated beads (Scintillation Proximity Assays from Amersham, reactions were stopped with EDTA).

In experiment [6] the target is T4, VEGFR-2 (Homo sapiens, UniProt P35968).
T4 construct: The kinase domain of the enzyme was purified to homogeneity from a baculovirus expression system; made in house
T4 sequence (P35968 834-1162 limits assumed, species assumed): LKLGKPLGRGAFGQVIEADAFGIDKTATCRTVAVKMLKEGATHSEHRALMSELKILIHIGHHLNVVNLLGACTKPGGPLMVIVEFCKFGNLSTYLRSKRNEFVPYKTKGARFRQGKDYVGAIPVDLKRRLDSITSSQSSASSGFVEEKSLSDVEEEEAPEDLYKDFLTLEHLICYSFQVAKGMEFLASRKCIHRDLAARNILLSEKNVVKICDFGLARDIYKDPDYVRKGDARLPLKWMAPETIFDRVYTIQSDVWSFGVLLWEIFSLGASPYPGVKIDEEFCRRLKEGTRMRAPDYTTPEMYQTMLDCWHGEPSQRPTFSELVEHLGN
Description: VEGFR-2 substrate phosphorylation assay. It is filed as biochemical.
Description: Substrate phosphorylation assays were carried out as follows:
The kinase domain of the enzyme was purified to homogeneity from a baculovirus expression system. The enzyme was preactivated on ice for 15 min in the presence of 100 μM ATP and 20 mM MgCl2, and stored at −80° C. until needed for assay. The activated enzyme was diluted to 0.4 nM into a 60 μl reaction containing 100 mM HEPES, pH 7.5, 5 μM ATP, 10 mM MgCl2, 5 μM peptide, 0.1 mM DTT, 0.05 mg/ml BSA, and an inhibitor at varying concentrations. The controls were reactions in the presence (negative controls) or absence (positive controls) of 50 mM EDTA. Reactions were incubated for 30 min at room temperature, and then quenched by the addition of EDTA to 60 mM in 210 μl . The quenched samples (190 μl) were transferred to a neutravidin-coated plate (Pierce) and incubated at room temperature for 40 min to allow biotinylated peptide to bind to the neutravidin. The unbound components of the reaction were removed by washing with a plate washer, then 200 μl HRP-PY20 anti-phosphotyrosine antibody conjugate was added to each well. After incubation for 40 min, the plate was washed to remove any unbound anitbody. A HRP substrate, K-blue (Neogen) was added and the reaction was quenched with Red Stop (Neogen) after 20 min. The absorbance of the wells was read at A650 in a plate reader. IC50 values were obtained by fitting raw data to A650=VMAX*(1−[I]/IC50+[I])))+b, where b is background.

[7] abbreviates: read-out: Tie-2 kinase inhibition IC50.
[8] abbreviates: read-out: VEGFR2 kinase inhibition IC50.

Read-outs that look alike come from different tables or passages of the source. Some results are limits rather than exact numbers.

In the case of `NC(=O)c1ccc(N/C=C2\C(=O)Nc3ccc4ncsc4c32)cc1` [Example 24, 4-{[(Z)-(7-Oxo-6,7-dihydro-8H-[1,3]thiazolo[5,4-e]indol-8-ylidene)methyl]amino}benzamide], the IC50 in experiment [1] was greater than 5000 nM; in experiment [2], 10 to 500 nM; in experiment [3] (setting [7]), greater than 100 nM; in experiment [4], greater than 100 nM; in experiment [5] it was 51 to 100 nM; in experiment [6], 11 to 50 nM.

For `CC(=O)N(C)c1ccc(N/C=C2\C(=O)Nc3ccc4ncsc4c32)cc1` [Example 58, N-Methyl-N-(4-{(Z)-[(7-oxo-6,7-dihydro-8H-[1,3]thiazolo[5,4-e]indol-8-ylidene)methyl]amino}phenyl)acetamide], the IC50 was 1100 to 5000 nM in experiment [1], 10 to 500 nM in experiment [2], greater than 100 nM in experiment [3] (setting [7]) and 11 to 50 nM in experiment [6] (setting [8]).

On to `Cc1cc(=O)[nH]n1-c1ccc(N/C=C2\C(=O)Nc3ccc4ncccc4c32)cc1` [Example 66, 1-{(Z)-[4-(5-Methyl-3-oxo-2,3-dihydro-1H-pyrazol-1-yl)anilino]methylidene}-1H-pyrrolo[3,2-f]quinolin-2(3H)-one], for which the IC50 in experiment [1] is greater than 5000 nM; in experiment [2], 600 to 1000 nM; in experiment [3] (setting [7]), greater than 100 nM; in experiment [6] (setting [8]), 1 to 10 nM.

On to `CCC1(c2ccc(N/C=C3\C(=O)Nc4ccc5ncccc5c43)cc2)CCC(=O)NC1=O` (stereo not drawn) [Example 63, 3-Ethyl-3-(4-{(Z)-[(2-oxo-2,3dihydro-1H-pyrrolo[3,2-f]quinolin-1-ylidene)methyl]amino}phenyl)-2,6-piperidinedione], for which the IC50 in experiment [1] was 600 to 1000 nM; in experiment [2], 10 to 500 nM; in experiment [3] (setting [7]) it was greater than 100 nM; in experiment [6] (setting [8]), 1 to 10 nM.

On to `CCN(CC)CCS(=O)(=O)c1ccc(N/C=C2\C(=O)Nc3ccc4ncsc4c32)cc1` [Example 71, 8-[(Z)-(4-{[2-(Diethylamino)ethyl]sulfonyl}anilino)methylidene]-6H-[1,3]thiazolo[5,4-e]indol-7-one], for which the IC50 was 10 to 500 nM in experiment [1], 10 to 500 nM in experiment [2], greater than 100 nM in experiment [3] (setting [7]) and 11 to 50 nM in experiment [6] (setting [8]).

With `O=C1Nc2ccc3ncccc3c2/C1=C/Nc1ccc(CCO)cc1` [Example 32, 1-{(Z)-[4-(2-Hydroxyethyl)anilino]methylidene}-1,3-dihydro-2H-pyrrolo[3,2-f]quinolin-2-one], the IC50 in experiment [1] is 1100 to 5000 nM; in experiment [2], 10 to 500 nM; in experiment [3] (setting [7]), greater than 100 nM; in experiment [5], 51 to 100 nM; in experiment [6] (setting [8]), 11 to 50 nM.

Consider `O=C1Nc2ccc3ncccc3c2/C1=C/Nc1ccc(Cc2ccncc2)cc1` [Example 30, 1-{(Z)-[4-(4-Pyridinylmethyl)anilino]methylidene}-1,3-dihydro-2H-pyrrolo[3,2-f]quinolin-2-one], for which the IC50 in experiment [1] is 1100 to 5000 nM; in experiment [2], 10 to 500 nM; in experiment [3] (setting [7]) it was greater than 100 nM; in experiment [4] it was greater than 100 nM; in experiment [5], 11 to 50 nM; in experiment [6] (setting [8]), 11 to 50 nM.

Regarding `CCC1(c2ccc(N/C=C3\C(=O)Nc4ccc5ncsc5c43)cc2)CCC(=O)NC1=O` (stereo not drawn) [Example 48, 3-Ethyl-3-(4-{(Z)-[(7-oxo-6,7dihydro-8H-[1,3]thiazolo[5,4-e]indol-8-ylidene)methyl]amino}phenyl)-2,6-piperidinedione], the IC50 in experiment [1] is 600 to 1000 nM; in experiment [2], 10 to 500 nM; in experiment [3] (setting [7]), greater than 100 nM; in experiment [4], greater than 100 nM; in experiment [6] (setting [8]) it was 1 to 10 nM.

As to `Cc1cc(=O)[nH]n1-c1ccc(N/C=C2\C(=O)Nc3ccc4ncsc4c32)cc1` [Example 55, 8-{(Z)-[4-(5-Methyl-3-oxo-2,3-dihydro-1H-pyrazol-1-yl)anilino]methylidene}-6H-[1,3]thiazolo[5,4-e]indol-7-one], the IC50 in experiment [1] was greater than 5000 nM; in experiment [2] it was 1100 to 5000 nM; in experiment [3] (setting [7]), greater than 100 nM; in experiment [4], greater than 100 nM; in experiment [5] it was 11 to 50 nM; in experiment [6] (setting [8]), 1 to 10 nM.

As to `O=C1Nc2ccc3ncccc3c2/C1=C/Nc1ccc(N2CCOCC2)cc1` [Example 29, 1-{(Z)-[4-(4-Morpholinyl)anilino]methylidene}-1,3-dihydro-2H-pyrrolo[3,2-f]quinolin-2-one], the IC50 is greater than 5000 nM in experiment [1]; 10 to 500 nM in experiment [2]; greater than 100 nM in experiment [3] (setting [7]); greater than 100 nM in experiment [4]; greater than 100 nM in experiment [5]; 11 to 50 nM in experiment [6] (setting [8]).

With `CCN(CC)CCS(=O)(=O)c1ccc(N/C=C2\C(=O)Nc3ccc4ncccc4c32)cc1` [Example 72, 1-[(Z)-(4-{[2-(Diethylamino)ethyl]sulfonyl}anilino)methylidene]-1H-pyrrolo[3,2-f]quinolin-2(3H)-one], the IC50 is 10 to 500 nM in experiment [1], 10 to 500 nM in experiment [2], greater than 100 nM in experiment [3] and 1 to 10 nM in experiment [6].
